# Source: US20260325519A1, “METHOD AND PHARMACEUTICAL COMPOSITION FOR USE IN THE TREATMENT OF FOCAL CORTICAL DYSPLASIA” (priority 2023, published 2026)
# Experiments:
# [1] = test system: acute cortical slices from a patient with FCD; test: Recurrent epileptiform discharges (LFP) in human acute slice from surgically resected FCD; assay type: cell-based; details: 5 μM UBP 310, 50 μM 4-AP and 5 μM gabazine
# Experimental: Cortical slices from patients with drug-resistant epilepsy Acute and cultured slices at 350 μm thickness were prepared from surgical cortical resections from patient diagnosed with drug-resistant epilepsy (AP-HM, Hôpital de La Timone, Marseille, France; CHU Pellegrin, Bordeaux, France) as previously described (Le Duigou et al., 2018). At DIV 1, a subset of cultured slices were transduced with AAV9 with antigrik2 miRNA applied directly to slices (4E+10 per slice).
# Prior to recordings, rat or human acute slices were transferred in oxygenated normal cerebrospinal fluid (ACSF) at room temperature (>1 hour). The ACSF contained (in mM, Sigma-Aldrich): 126 NaCl, 3.5 KCl, 1.2NaH2PO4, 26 NaHCO3, 1.3 MgCl2, 2.0 CaCl2 , and 10 glucose (pH 7.4). For electrophysiological recordings, cortical slices were individually transferred to a recording chamber maintained at 30-32 °C and continuously perfused (2-3 ml/min) with oxygenated (95% O2 and 5% CO2) ACSF containing either 5 μM gabazine, or 5 μM gabazine and 50 μM 4-AP in rats and human tissues, respectively. Spontaneous recurrent epileptiform discharges were recorded as local field potentials as previously described (Peret et al., 2014).
# All statistical analyses were performed using Prism 6 (Graphpad). Normality of the data distributions was systematically tested using a Shapiro-Wilk test. […]
# [2] = test system: neocortical acute slices from rats with FCDII; test: Spontaneous recurrent epileptiform discharges (LFP) in acute neocortical slices from adult FCD rats; assay type: cell-based, rat (Wistar); details: 5 μM gabazine
# Experimental: Our study takes advantage of a rat model of FCD developed in our laboratory (Pelorosso et al 2019) by in utero electroporation of a gain of function mutation of mTOR (MTOR c.6644C>T p.S2215F), that has been found in different FCD patients (Baldassari et al 2019). Rats were housed in cages with ad libitum food/water, controlled temperature (21-23 °C) and 12:12 h light-dark cycle (light period from 8 A.M. to 8 P.M.).
# Plasmid electroporations were performed with either wild type (WT) or mutant mTOR expression vectors (pCAG-MTOR WT-IRES-GFP or pCAG-MTOR p.S2215F, respectively, 3.0 μg/μL each), or with non-recombinant vector (pCAG-IRES-GFP; 0.5 μg/μL). All constructs were generated by Genscript (Piscataway, NJ) as described before (Pelorosso et al 2019) and were checked by Sanger sequencing.
# Timed pregnant Wistar rats (Janvier Labs, Le Genest-Saint-Isle, France) received buprenorphine at 0.03 mg/kg and were anesthetized with sevoflurane (4%) 30 min later. […]
# Prior to recordings, rat or human acute slices were transferred in oxygenated normal cerebrospinal fluid (ACSF) at room temperature (>1 hour). […] Spontaneous recurrent epileptiform discharges were recorded as local field potentials as previously described (Peret et al., 2014). […]
# [3] = test system: acute cortical slices from a patient with FCD; test: Field EPSP (fEPSP) evoked by electrical stimulation in human acute slice from surgically resected FCD; assay type: cell-based; details: 5 μM UBP 310
# [4] = acute cortical slices from a patient with FCD
# [5] = human acute slice from resected FCD, in words
compound,measurement,setting,value
Cc1cn(C[C@H](N)C(=O)O)c(=O)n(Cc2ccsc2C(=O)O)c1=O [UBP 310],reduction of the frequency of spontaneous recurrent epileptiform discharges,[1]; [4],around 70%
same,reduction of the number of epileptiform discharges,[1]; [5],strong reduction
same,reduction in the number of epileptiform discharges,"[2]; 5 μM UBP 310, bath application, acute neocortical slice from adult FCD rat, n=7 slices from 4 FCD rats, Wilcoxon p=0.0156",around 46%
same,reduction in the frequency of spontaneous recurrent epileptiform discharges,"[2]; 5 μM UBP 310, neocortical acute slices from rats with FCDII",around 46%
same,reduction of the amplitude of evoked field EPSP (fEPSP),[3]; [4],approximately 50%
same,fEPSP evoked by electrical stimulation,[3]; [5],strongly reduced
